Data taken from patent publication US8216580B2, “Sulfatases and methods of use thereof” (The Regents of the University of California, priority 2000, dated 2012).

Tests used:
[1] = Endo-glucosamine-6-sulfatase assay against intact heparin (heparinase digestion, disaccharide HPLC); assay type: biochemical, porcine; details: for Endo-glucosamine-6-sulfatase activity: 10 μg heparin, pH 7.5, 37° C., 8 hr, means±S.D., three reactions
Method: The procedures of Yoshida et al ((1989) Anal. Biochem. 177:327-332) were adapted for these assays. CM from transfected CHO cells (wild-type Sulfs, vector control or the double cysteine mutants) was prepared as described above. The standard reaction mixture contained 5 μmol of Tris-HCl, pH 7.5, 1 μmol of MgCl2, 10 μg of porcine intestinal heparin (Sigma, St. Louis, Mo.) and 20 μl of the 100-fold concentrated CM in a total volume of 100 μl. After incubation at 37° C. for 8 hr, the reaction was stopped by heating at 100° C. for 2 min. A mixture of 1 milliunit of Heparinase I (EC 4.2.2.7, Sigma), 0.25 milliunits of Heparinase II (Sigma) and 0.1 milliunits of Heparinase III (EC 4.2.2.8, Sigma) in 1.5 μl of 50 mM Tris-HCl, pH 7.5, was added to the reaction mixture and incubated at 37° C. for 3 hr. The digestion was stopped by heating at 100° C. for 2 min, and the mixture was filtered by centrifugation in an Ultrafree-MC filter (Millipore).
The disaccharides of the digested heparin were then analyzed by HPLC on a Partisil-10 SAX column (Whatman, Fairfield, N.J.) run at 41° C. Disaccharides were eluted from the column by increasing the ionic strength as follows: time 0-5 min, 12 mM KH2PO4; time 5-40 minutes, gradient from 12 mM to 600 mM; time 40-45 min, 600 mM. Absorbance at 232 nm was monitored and components were identified by comparison with authentic unsaturated disaccharide markers from Sigma, i.e. ΔDiHS-0S, ΔDiHS-6S, ΔDiHS-NS, ΔDiHS-(N,6)diS, ΔDiHS-(N,2)diS and ΔDiHS-(N,6,2)triS. The endo-glucosanine-6-sulfatase activities of human Sulf-1 and Sulf-2 against heparin proceeded linearly up to 10 hr under these conditions. In other assays, 10 μg of chondroitin 6-sulfate was employed as a substrate in the standard assay. After incubation with CM, 15 milliunits of Chondroitinase ABC (EC 4.2.2.4, Sigma) was used to fragment the chondroitin sulfate. The standards used were as follows: ΔDi-0S, ΔDi-6S, ΔDi-4S, ΔDi-diSD(2,6) and ΔDi-diSE(4,6). All were from Oxford GlycoSystems Inc.
Intact heparin (10 μg) was treated with conditioned medium from Sulf transfected CHO cells. To analyze activity on specific sulfation modifications, we digested the treated heparin with a mixture of bacterial heparinases and analyzed the disaccharide products by HPLC using standards (Yoshida, supra). Both HSulf-1 CM and Hsulf-2 CM produced an ≈80% reduction in the amount of trisulfated units ([…]) corresponding to IdoA2S-GlcNS6S and a parallel increase in that of disulfated units (ΔDiHS-(N,2)diS) corresponding to IdoA2S-GlcNS (FIG. 16A-C). There were no effects on the disulfated units ΔDiHS-(N,6)diS, monosulfated or non-sulfated units. Specific activities were calculated based on the volume of CM (Table 3). The endosulfatase activities of Sulf-1 and Sulf-2 CM were increased 9-fold and 10-fold respectively relative to CM from mock transfected cells (Table 3). […] Further selectivity of the endosulfatase activity was indicated when we employed chondroitin 6-sulfate as a substrate. […] Thus the Sulfs are active against intact heparin.
Endo-glucosamine-6-sulfatase activity was measured against intact heparin as described in above using CM derived from CHO cells transfected with the indicated vectors. HSulf-1 ΔCC and HSulf-2 ΔCC denote the CC87, 88AA and CC88, 89AA mutants, respectively. Endosulfatase activity was defined by calculating the moles of unsaturated trisulfated disaccharides from which the sulfate group on C-6 position was liberated in the standard assay (FIGS. 16A-F) by the Sulfs as compared to levels in untreated control samples. Values shown are means±S.D. based on three independent reactions.

Wnt signaling [2] = test: TCF-luciferase (TOPFlash/FOPFlash) Wnt reporter assay in pancreatic adenocarcinoma cell lines; assay type: cell-based, human; details: for Wnt activity: 16 hours with conditioned medium of HEK 293 clones
Method: (§1) Cells were plated in 24 well plates and transfected with either 0.3 μg TOPFlash or FOPFlash and 0.01 μg Renilla control plasmid (Promega) using Fugene (Roche) according to the manufacturer's procedure. After 48 hours cells were lysed and analyzed utilizing the Dual Luciferase Reporter Assay system (Promega). Luciferase activity was normalized to control Renilla activity.
To search for evidence that endogenous expressed sulfatases in pancreatic adenocarcinoma cell lines regulate Wnt signaling, the method of gene silencing was used. An antisense cDNA against both sulfatases was transiently transfected into four different cell lines. As a control, cells were transfected with a MMP-9 antisense cDNA. Wnt signaling was quantified by TCF-luciferase activity.
HSulf-1 DCC and HSulf-2 DCC mutants are as follows: 1) cysteines 87 and 88 of HSulf-1 (designated as HSulf-1 ΔCC or HSulf-1 DCC) were changed to alanines; and cysteines 88 and 89 of HSulf-2 (designated as HSulf-2 ΔCC or HSulf-2 DCC) were changed to alanines (see Example 9, above).
The effect of conditioned medium derived from the HEK 293 cell lines on Wnt signaling was determined. Pancreatic adenocarcinoma cells were incubated for 16 hours with conditioned medium derived from the described HEK 293 clones; and the TOP/FOPflash system was used to quantify Wnt signaling.
In order to compare proliferation of BxPC3 sil413 cells and mock transfected BxPC3 cells in vitro, GFP+ (HSulf-2 positive) and GFP− (HSulf-2 negative) cells were co-cultured; and the ratio of GFP+ to GFP− cells was followed over time. […] Additionally, using sorted BxPC3 si1413 cells we examined proliferation performing BrdU incorporation experiments (FIG. 21D).

Wnt signaling [3] = test: TCF-luciferase (TOPFlash/FOPFlash) Wnt reporter assay in HEK 293 cells co-cultured with Wnt-expressing 3T3 fibroblasts; assay type: cell-based, human; details: stably transfected HEK 293 cells co-cultured with Wnt1 or Wnt4 expressing 3T3 fibroblasts
Method: as §1
To assay HSulf influence on Wnt signaling in HEK 293 cells, HEK 293 cells were transfected with TOP/FOPFlash and Renilla control plasmid. 24 hours later the medium was changed, and Wnt1-transfected 3T3 […] fibroblasts were added. 24 hours later, Luciferase activity was measured, as described above.
Dhoot et al. (2001) supra; Ai et al. (2003) J Cell Biol 162:341-351. In order to determine if the human Sulfs affect Wnt signaling, the effect of HSulf-1 and -2, when overexpressed in a heterologous expression system on Wnt signaling, was analyzed. For this purpose, HEK 293 cells stably transfected with either HSulf-1 (HS1) or HSulf-2 (HS2) were co-cultured with Wnt1 or Wnt4 expressing 3T3 fibroblasts. Wnt activity was measured by utilizing a quantitative TCF-luciferase reporter gene (FOPFlash/TOPFlash system). van de Wetering et al. (1997) Cell 88:789-799.

[4] = CM from transfected CHO cells, intact heparin 10 μg

Row | effects on the disulfated units ΔDiHS-(N,6)diS, monosulfated or non-sulfated units [1, 4] | reduction in the amount of trisulfated units ([…]) corresponding to IdoA2S-GlcNS6S [1, 4] | removal of sulfate from the 6-position of glucosamine within the tri-sulfated units ([1]; intact heparin, neutral pH) [%] | Substance | Endo-glucosamine-6-sulfatase activity ([1]; CM from transfected CHO cells) | Wnt activity (Wnt signaling [2]; CFPAC-1 cells) | Wnt activity (Wnt signaling [2]; cell lines inhibited in proliferation) | inhibition of Wnt signaling (TCF-luciferase activity) (Wnt signaling [2]; transient transfection, in three of the four examined pancreatic adenocarcinoma cell lines) | endosulfatase activity increase relative to CM from mock transfected cells ([1]; based on Table 3) [fold] | increase of Wnt activity (Wnt signaling [3])
1 |  |  |  | HSulf-2 ΔCC: catalytically inactive HSulf-2, cysteines 88 and 89 mutated to alanines (CC88, 89AA) | 5.6 ± 0.6 pmol/hr/ml of medium | did no respond | significant decrease | about 50% |  | 
2 | no effects | ≈ 80% | 80 | HSulf-2: Human SULF2, an 870 amino acid sulfatase protein, SEQ ID NO:06; expressed with C-terminal Myc-His tag | 96.6 ± 0.5 pmol/hr/ml of medium |  |  |  | 10 | two-fold
